Values of other authors, collected in US20250073222A1, “METHODS FOR THE TREATMENT AND PREVENTION OF NON-VIRAL TICK-BORNE DISEASES AND SYMPTOMS THEREOF” (60 DEGREES PHARMACEUTICALS LLC, priority 2023, published 2025).
Read-outs that look alike come from different tables or passages of the source.

Key:
Babesia microti = details: animals; cited from earlier work
[1] = system: Trypanosome brucei blood stage forms; details: exposure for 90 minutes; cited from earlier work
Treponema palludum = details: 50 or 100 microM for two hours in a 3% oxygen atmosphere; cited from earlier work
Babesia parasites = details: 100 microM for 2 h; cited from earlier work
[2] = system: various serovars of Leptospira; details: exposure for as little as 30 min; cited from earlier work
[3] = system: P. falciparum gametocytes; details: single dose combined with dihydroartemisinin/piperaquine; cited from earlier work
Babesia [4] = details: mice, single doses; cited from earlier work
[5] = cited from earlier work
[6] = system: gametocytes of P. falciparum; details: cited from earlier work
Pneumocystis = details: mice; cited from earlier work
B. gibsoni = details: splenectomized dogs; cited from earlier work
[7] = loading dose of 600 mg over three days followed by weekly 200 mg for up to one year, cited from earlier work
Plasmodium falciparum = details: 600 mg loading dose followed by 200 mg; parasite load three days after last dose; non-immune volunteers; cited from earlier work
B. rodhaini = details: cited from earlier work
Plasmodium vivax = details: 400 mg/day for three days, monotherapy, symptomatic P. vivax malaria patients; cited from earlier work
[8] = coadministered with chloroquine; cited from earlier work
[9] = system: extracellular blood stage forms of Trypanosoma brucei; details: cited from earlier work
Babesia [10] = details: one and three doses, immunocompromised mice and dogs; cited from earlier work
[11] = system: intracellular amastigote forms of Leishmania major; details: cited from earlier work
[12] = system: free-living gram-negative bacteria and free-living gram-positive bacteria; details: cited from earlier work
B. microti = details: one patient, prior rituximab; tafenoquine: approved malaria prevention dose as monotherapy for six weeks; cited from earlier work
[13] = single dose of 20 mg/kg, Balb/c (immunocompetent) mice
[14] = single dose of 20 mg/kg, immunocompromised SCID mice

SMILES: COc1cc(NC(C)CCCN)c2nccc(C)c2c1 (centres unmarked) [4-methyl substituted primaquine]
- efficacy against Babesia microti compared with primaquine (Babesia microti): more efficacious than primaquine

SMILES: OO [hydrogen peroxide]
- concentration that killed blood stage forms [1]: approximately 140 microM
- effect on growth (Treponema palludum): significantly inhibited
- effect on Babesia parasites in vitro (Babesia parasites): kills Babesia parasites in vitro
- concentrations that killed [2]: < 180 µM

SMILES: COc1cc(NC(C)CCCN)c2ncccc2c1 (centres unmarked) [primaquine]
- time until gametocyte infectivity was statistically lower than reference values [3]: by two days post-dosing
- dose that cleared Babesia parasitemia (Babesia [4]): 100 mg/kg
- half-life ([5]; in vivo): approximately 6 hours
- effect on gametocytes of P. falciparum [6]: killed by site specific (in bone marrow) excess production of hydrogen peroxide
- cure of Pneumocystis infections (Pneumocystis): must be combined with clindamycin to achieve the same outcome

SMILES: COc1cc(C)c2c(Oc3cccc(C(F)(F)F)c3)c(OC)cc(NC(C)CCCN)c2n1 (centres unmarked) [tafenoquine, N(4)-[2,6-Dimethoxy-4-methyl-5-[3-(trifluoromethyl)phenoxy]quinolin-8-yl]pentane-1,4-diamine]
- symptoms of infection such as anorexia, elevated respiration and pulse (B. gibsoni): alleviated
- overall rate of adverse events relative to placebo [7]: without increasing the overall rate of adverse events
- specific adverse events with increased risk ([7]; reversible, not clinically significant): gastrointestinal effects [mild to moderate] and cornea verticillata
- development of blood stage parasitemia after challenge (Plasmodium falciparum): none of the tafenoquine subjects did
- effect on B. rodhaini blood stages (vacuoles) (B. rodhaini; single dose of 20 mg/kg in mice): induces the formation of large vacuoles
- parasitemia (B. rodhaini; [13]): cleared parasitemia
- survival (B. rodhaini; [13]): 100%
- death (B. rodhaini; [14]): death was therefore delayed
- parasitemia (B. rodhaini; [14]): cleared initial parasitemia but did not prevent relapses
- dose that cleared Babesia parasitemia (Babesia [4]): 20 mg/kg
- time by which all patients cleared blood stage parasites (Plasmodium vivax): ≤ 8 days
- effect on QTC prolongation of chloroquine [8]: did not increase the QTC prolongation
- potency of killing [9]: < 4 µM
- half-life in vivo compared with primaquine ([5]; FIG. 1A and FIG. 1B legend): longer half-life in vivo
- clearance and cure of Babesia (Babesia [10]): sufficient to clear and cure Babesia
- potency of killing [11]: < 4 µM
- activity against gram-negative versus gram-positive bacteria [12]: much less active against free-living gram-negative bacteria than free-living gram-positive bacteria
- cure of Pneumocystis infections (Pneumocystis): can be administered as monotherapy to cure Pneumocystis infections
- clinical outcome of the regimen (B. microti): the patient was cured
